# From ChEMBL document CHEMBL4732114, “Design and structural optimization of novel 2H-benzo[h]chromene derivatives that target AcrB and reverse bacterial multidrug resistance” (Eur J Med Chem, 2021)
# Experiments:
# [1] = biological target: T1, Multidrug efflux pump subunit AcrB (Escherichia coli (strain K12)) (UniProt P31224); assay: Inhibition of AcrB in multidrug-resistant Escherichia coli BW25113 assessed as potentiation of levofloxacin-induced antibacterial activity by measuring levofloxacin MIC at 256 ug/ml by checkerboard titration method (reference value: 0.06 ug/ml); conditions: dose 256.0 µg/ml
# T1 sequence (whole entry): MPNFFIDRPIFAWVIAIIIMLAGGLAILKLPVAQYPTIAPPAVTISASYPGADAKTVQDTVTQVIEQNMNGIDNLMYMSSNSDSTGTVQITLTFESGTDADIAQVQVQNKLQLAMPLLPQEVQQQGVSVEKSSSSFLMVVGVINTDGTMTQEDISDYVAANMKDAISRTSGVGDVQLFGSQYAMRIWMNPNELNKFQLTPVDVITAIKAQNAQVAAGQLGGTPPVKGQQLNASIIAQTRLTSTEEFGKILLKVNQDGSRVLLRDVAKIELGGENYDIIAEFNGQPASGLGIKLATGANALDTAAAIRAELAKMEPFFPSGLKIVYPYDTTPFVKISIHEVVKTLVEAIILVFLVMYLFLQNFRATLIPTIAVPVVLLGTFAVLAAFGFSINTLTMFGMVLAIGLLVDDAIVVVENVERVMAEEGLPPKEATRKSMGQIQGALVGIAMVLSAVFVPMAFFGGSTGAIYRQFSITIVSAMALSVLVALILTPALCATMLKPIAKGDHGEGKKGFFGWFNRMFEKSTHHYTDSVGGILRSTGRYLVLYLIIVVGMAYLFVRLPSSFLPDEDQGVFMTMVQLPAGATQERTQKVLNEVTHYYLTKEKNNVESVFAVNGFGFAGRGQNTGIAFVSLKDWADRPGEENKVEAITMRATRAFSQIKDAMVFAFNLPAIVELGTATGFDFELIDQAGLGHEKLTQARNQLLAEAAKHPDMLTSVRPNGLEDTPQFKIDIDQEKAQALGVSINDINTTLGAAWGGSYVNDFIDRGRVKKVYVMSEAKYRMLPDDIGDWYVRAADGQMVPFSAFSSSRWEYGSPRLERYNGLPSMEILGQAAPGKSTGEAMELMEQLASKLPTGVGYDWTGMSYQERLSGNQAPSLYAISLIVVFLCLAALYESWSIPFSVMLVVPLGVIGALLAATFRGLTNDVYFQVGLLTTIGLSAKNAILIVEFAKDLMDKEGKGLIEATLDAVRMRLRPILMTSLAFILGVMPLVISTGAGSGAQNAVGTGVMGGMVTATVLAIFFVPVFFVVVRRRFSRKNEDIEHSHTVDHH
# [2] = biological target: T1, Multidrug efflux pump subunit AcrB (Escherichia coli (strain K12)); assay: Inhibition of AcrB in multidrug-resistant Escherichia coli BW25113 assessed as potentiation of chloramphenicol-induced antibacterial activity by measuring chloramphenicol MIC at 512 ug/ml by checkerboard titration method (reference value: 8 ug/ml); conditions: dose 512.0 µg/ml
# [3] = biological target: T1, Multidrug efflux pump subunit AcrB (Escherichia coli (strain K12)); conditions: Escherichia coli BW25113; dose 512.0 µg/ml
# [4] = biological target: T1, Multidrug efflux pump subunit AcrB (Escherichia coli (strain K12)); assay: Inhibition of AcrB in multidrug-resistant Escherichia coli BW25113 assessed as potentiation of tetraphenylphosphonium-induced antibacterial activity by measuring tetraphenylphosphonium MIC at 256 ug/ml by checkerboard titration method (reference value: 1024 ug/ml); conditions: dose 256.0 µg/ml
# [5] = biological target: T1, Multidrug efflux pump subunit AcrB (Escherichia coli (strain K12)); assay: Inhibition of AcrB in multidrug-resistant Escherichia coli BW25113 assessed as potentiation of erythromycin-induced antibacterial activity by measuring erythromycin MIC at 512 ug/ml by checkerboard titration method (reference value: 64 ug/ml); conditions: dose 512.0 µg/ml
# [6] = biological target: T1, Multidrug efflux pump subunit AcrB (Escherichia coli (strain K12)); assay: Inhibition of AcrB in multidrug-resistant Escherichia coli BW25113 assessed as potentiation of erythromycin-induced antibacterial activity by measuring erythromycin MIC at 256 ug/ml by checkerboard titration method (reference value: 64 ug/ml); conditions: dose 256.0 µg/ml
# [7] = biological target: T1, Multidrug efflux pump subunit AcrB (Escherichia coli (strain K12)); assay: Inhibition of AcrB in multidrug-resistant Escherichia coli BW25113 assessed as potentiation of chloramphenicol-induced antibacterial activity by measuring chloramphenicol MIC at 256 ug/ml by checkerboard titration method (reference value: 8 ug/ml); conditions: dose 256.0 µg/ml
# [8] = biological target: T1, Multidrug efflux pump subunit AcrB (Escherichia coli (strain K12)); assay: Inhibition of AcrB in multidrug-resistant Escherichia coli BW25113 assessed as potentiation of tetraphenylphosphonium-induced antibacterial activity by measuring tetraphenylphosphonium MIC at 512 ug/ml by checkerboard titration method (reference value: 1024 ug/ml); conditions: dose 512.0 µg/ml
# [9] = biological target: T1, Multidrug efflux pump subunit AcrB (Escherichia coli (strain K12)); conditions: Escherichia coli BW25113; dose 256.0 µg/ml
# [10] = biological target: T1, Multidrug efflux pump subunit AcrB (Escherichia coli (strain K12)); assay: Inhibition of AcrB in multidrug-resistant Escherichia coli BW25113 assessed as potentiation of levofloxacin-induced antibacterial activity by measuring levofloxacin MIC at 512 ug/ml by checkerboard titration method (reference value: 0.06 ug/ml); conditions: dose 512.0 µg/ml
structure (smiles),measurement,setting,value
CC(C)CCOc1cc(C(N)=O)cc2ccccc12,MIC,[1],0.06 µg/mL
same,MIC,[2],4 µg/mL
same,MIC,[3],16 µg/mL
same,MIC,[4],512 µg/mL
same,MIC,[5],32 µg/mL
same,MIC,[6],64 µg/mL
same,MIC,[7],8 µg/mL
same,MIC,[8],256 µg/mL
same,MIC,[9],16 µg/mL
same,MIC,[10],0.06 µg/mL
